Experiments:
Rattus norvegicus [1] = assay: Reduction in LDL-C level in rat dosed for 7 days; assay type: functional; set-up: scale not given: the % may be the effect or the level left
Rattus norvegicus [2] = assay: Increase in HDL-C level in rat dosed for 7 days; assay type: functional
Hamster [3] = assay: Antidyslipidemic activity in HFD-fed dyslipidemic hamster assessed as reduction in serum total cholesterol at 50 mg/kg; assay type: functional, Cricetinae; set-up: scale not given: the % may be the effect or the level left
Hamster [4] = assay: Antidyslipidemic activity in HFD-fed dyslipidemic hamster assessed as reduction in serum triglyceride level at 50 mg/kg; assay type: functional, Cricetinae; set-up: scale not given: the % may be the effect or the level left
Hamster [5] = assay: Antidyslipidemic activity in HFD-fed dyslipidemic hamster assessed as reduction in serum glycerol at 50 mg/kg; assay type: functional, Cricetinae; set-up: scale not given: the % may be the effect or the level left
Hamster [6] = assay: Antidyslipidemic activity in HFD-fed dyslipidemic hamster assessed as HDLC/total cholesterol at 50 mg/kg; assay type: functional, Cricetinae
Homo sapiens [7] = assay: Reduction in LDL-C level in hypercholesterolemic patient dosed for 3 months; assay type: functional; set-up: scale not given: the % may be the effect or the level left
Homo sapiens [8] = assay: Reduction in triglyceride level in hypercholesterolemic patient dosed for 3 months; assay type: functional; set-up: scale not given: the % may be the effect or the level left
Homo sapiens [9] = assay: Reduction in total cholesterol level in hypercholesterolemic patient dosed for 3 months; assay type: functional; set-up: scale not given: the % may be the effect or the level left
Hamster [10] = assay: Reduction in serum LDL-C level hyperlipidemic hamster relative to untreated control; assay type: functional, Cricetinae; set-up: scale not given: the % may be the effect or the level left
Hamster [11] = assay: Reduction in serum total cholesterol level hyperlipidemic hamster relative to untreated control; assay type: functional, Cricetinae; set-up: scale not given: the % may be the effect or the level left
Hamster [12] = assay: Increase in hepatic LDLR protein hyperlipidemic hamster relative to untreated control; assay type: functional, Cricetinae
Hamster [13] = assay: Increase in hepatic LDLR mRNA hyperlipidemic hamster relative to untreated control; assay type: functional, Cricetinae
Homo sapiens [14] = species on record: Homo sapiens; assay: Reduction in total cholesterol in human at 500 mg/day; assay type: functional; set-up: scale not given: the % may be the effect or the level left
Homo sapiens [15] = species on record: Homo sapiens; assay: Increase in HDL-C in human at 500 mg/day; assay type: functional
Homo sapiens [16] = species on record: Homo sapiens; assay: Reduction in serum lipid peroxides in human at 500 mg/day; assay type: functional; set-up: scale not given: the % may be the effect or the level left
Homo sapiens [17] = species on record: Homo sapiens; assay: Reduction in LDL-C level in patient with moderate hypercholesterolemia at 20 to 80 mg/day; assay type: functional; set-up: scale not given: the % may be the effect or the level left
Homo sapiens [18] = species on record: Homo sapiens; assay: Increase in HDL-C level in patient with moderate hypercholesterolemia at 20 to 80 mg/day; assay type: functional
Homo sapiens [19] = species on record: Homo sapiens; assay: Reduction in total cholesterol level in patient with moderate hypercholesterolemia at 20 to 80 mg/day; assay type: functional; set-up: scale not given: the % may be the effect or the level left
Homo sapiens [20] = species on record: Homo sapiens; assay: Reduction in triglyceride level in patient with moderate hypercholesterolemia at 20 to 80 mg/day; assay type: functional; set-up: scale not given: the % may be the effect or the level left
Sus scrofa [21] = species on record: Sus scrofa; assay: Reduction in total cholesterol in swine with metabolic syndrome and myocardial ischemia; assay type: functional; set-up: scale not given: the % may be the effect or the level left
Sus scrofa [22] = species on record: Sus scrofa; assay: Reduction in LDL in swine with metabolic syndrome and myocardial ischemia; assay type: functional; set-up: scale not given: the % may be the effect or the level left
Homo sapiens [23] = species on record: Homo sapiens; assay: Reduction in triglyceride level in patient with heterozygous familial hypercholesterolaemia at 40 mg/day; assay type: functional; set-up: scale not given: the % may be the effect or the level left
Homo sapiens [24] = species on record: Homo sapiens; assay: Reduction in LDL-C level in patient with heterozygous familial hypercholesterolaemia at 40 mg/day; assay type: functional; set-up: scale not given: the % may be the effect or the level left
Homo sapiens [25] = species on record: Homo sapiens; assay: Increase in HDL-C level in patient with heterozygous familial hypercholesterolaemia at 40 mg/day; assay type: functional
Rattus norvegicus [26] = assay: Hypercholesterolemic activity in rat assessed as reduction in plasma cholesterol level at 4 to 25 mg/kg/day; assay type: functional; set-up: scale not given: the % may be the effect or the level left
Rattus norvegicus [27] = assay: Hypercholesterolemic activity in rat assessed as reduction in triglyceride level at 4 to 25 mg/kg/day; assay type: functional; set-up: scale not given: the % may be the effect or the level left
Rattus norvegicus [28] = assay: Hypercholesterolemic activity in male rat assessed as reduction in cholesterol level at 80 mg/kg/day for 7 days; assay type: functional; set-up: scale not given: the % may be the effect or the level left
Rattus norvegicus [29] = assay: Hypercholesterolemic activity in male rat assessed as reduction in triglyceride level at 80 mg/kg/day for 7 days; assay type: functional; set-up: scale not given: the % may be the effect or the level left
Rattus norvegicus [30] = assay: Hypercholesterolemic activity in rat assessed as reduction in cholesterol level at 80 mg/kg/day for 8 days; assay type: functional; set-up: scale not given: the % may be the effect or the level left

Work on `C/C=C/c1cc(OC)c(OC)c(OC)c1` yielded an Activity (Rattus norvegicus [1]) of 47% and an Activity (Rattus norvegicus [2]) of 56%.
`CC(C)=CCC/C(C)=C/CC/C(C)=C/CC/C(C)=C\CC/C(C)=C\CC/C(C)=C\CC/C(C)=C\CC/C(C)=C\CC/C(C)=C\CC/C(C)=C\CC/C(C)=C\CC/C(C)=C\CO` showed an Activity (Hamster [3]) of 25%, an Activity (Hamster [4]) of 42% and an Activity (Hamster [5]) of 12%. The Activity (Hamster [6]) was 26%.
Work on `COc1ccc2cc3[n+](cc2c1OC)CCc1cc2c(cc1-3)OCO2` [BERBERINE] yielded an Activity (Homo sapiens [7]) of 25%, an Activity (Homo sapiens [8]) of 35% and an Activity (Homo sapiens [9]) of 29%. The Activity (Hamster [10]) was 42%, the Activity (Hamster [11]) was 40% and the “fold change (FC)” value (Hamster [12]) was 2.6. The “fold change (FC)” value (Hamster [13]) was 3.5.
Compound `COc1cc(/C=C/C(=O)CC(=O)/C=C/c2ccc(O)c(OC)c2)ccc1O` [CURCUMIN] has an Activity (Homo sapiens [14]) of 12%, an Activity (Homo sapiens [15]) of 29% and an Activity (Homo sapiens [16]) of 33%.
`CC[C@H](C)C(=O)O[C@H]1C[C@@H](C)C=C2C=C[C@H](C)[C@H](CC[C@@H]3C[C@@H](O)CC(=O)O3)[C@H]21` [LOVASTATIN] was tested, and the Activity (Homo sapiens [17]) was 24 - 40%, the Activity (Homo sapiens [18]) was 6.6 - 9.5% and the Activity (Homo sapiens [19]) was 17 - 29%. For the same compound, the Activity (Homo sapiens [20]) was 10 - 19%.
With `Oc1ccc(/C=C/c2cc(O)cc(O)c2)cc1` [RESVERATROL] the Activity (Sus scrofa [21]) was 33% and the Activity (Sus scrofa [22]) was 30%.
For `CCC(C)(C)C(=O)O[C@H]1C[C@@H](C)C=C2C=C[C@H](C)[C@H](CC[C@@H]3C[C@@H](O)CC(=O)O3)[C@H]21` [SIMVASTATIN], the Activity (Homo sapiens [23]) was 21 - 31%, the Activity (Homo sapiens [24]) was 43 - 45% and the Activity (Homo sapiens [25]) was 10 - 13%.
`C/C=C/c1cc(OC)c(OC)cc1OC` [TRANS-ASARONE] was tested, and the Activity (Rattus norvegicus [26]) was 40 - 60%, the Activity (Rattus norvegicus [27]) was 40 - 60% and the Activity (Rattus norvegicus [28]) was 57%. The Activity (Rattus norvegicus [29]) was 42% and the Activity (Rattus norvegicus [30]) was 38%.

From ChEMBL document CHEMBL4130470, “Lipid lowering agents of natural origin: An account of some promising chemotypes” (2017)
